Assay results taken from publication PMC4886168, “Effects of solid‐phase extraction of plasma in measuring gut metabolic hormones in fasted and fed blood of lean and diet‐induced obese rats” (Physiological Reports, 2016).
Several values for one entry are separate records, joined by “and”; a condition that tells them apart may be missing. Equal entries are not always repeated.

Legend:
food intake in lean rats = conditions: cited from earlier work; for ED50 dose for reducing food intake: 3-h IV infusion, ref Reidelberger et al. 2001, Chelikani et al. 2005a,b
[1] = Plasma peptide levels during IV infusion of anorexigenic doses in lean rats
Procedure: Leptin doses bracketed the minimal effective dose (1100 ng/kg/min) for reducing food intake in lean rats (Reidelberger et al. 2012). Approximately 45 min after infusion onset, and while the infusion continued, rats were anesthetized with isoflurane (3%), and blood samples (~3 mL) were obtained by cardiac puncture. Samples were immediately transferred to 4 mL EDTA tubes on ice containing 40 μL of a mixture of 0.9 mL DPP4 inhibitor, 0.1 mL Protease Inhibitor Cocktail, and 0.1 g AEBSF. Plasma was obtained by centrifugation within 30 min of sample collection and stored at −70°C until solid‐phase extraction of samples followed by the multiplex assay. Infusions were administered using a syringe infusion pump (Harvard Apparatus, South Natick, MA). At the end of the experiment, data from a rat were excluded if its jugular vein catheter was not patent. A catheter was deemed patent if the rat lost consciousness within 10 sec of a bolus injection of the short‐acting anesthetic brevital into the catheter.
Plasma samples were extracted using procedures similar to those described previously (Dai et al. 2008). Briefly, an OASIS HLB LP (60 mg) 96‐well extraction plate (Waters Corp., Milford, MA) was prepared by passing 1 mL acetonitrile twice through each well, followed by 3, 1 mL washes of 1% trifluoroacetic acid (TFA; 1:100 water [vol/vol]). Flows through the wells were facilitated using a Waters vacuum manifold (5 inch Hg). Plasma (1 mL) was then added to each well; 10 min later, flows were facilitated using vacuum. Wells were then washed three times with 1 mL 1% TFA (facilitated using vacuum). Extracts were eluted into individual tubes by adding 1 mL of 1% TFA, 60% acetonitrile in water (vol/vol) to each well; 10 min later, flows were facilitated using vacuum. Samples of each extract (0.9 mL) were frozen, and then lyophilized to dryness. At time of assay, dried extracts for each sample were dissolved with 0.45 mL of assay buffer, producing a twofold higher concentration for eluted plasma components.
The multiplex assay employed a BioTek ELx405 plate washer fitted with a magnetic holder, and a Luminex 200 analyzer. […] Initial assays compared peptide standards used in the multiplex assay with those used in the individual ELIAs: multiplex assay standards were included in the individual ELIAs, and standards from the ELIAs were included in the multiplex assay.
In experiments examining the effects of solid‐phase extraction of plasma samples on specific recoveries of the seven peptides added to lean and obese plasma, measured peptide concentrations in each plasma sample were plotted against expected concentrations (after subtracting plasma alone values), and linear regression analyses were performed. […] Planned comparisons of treatment means were evaluated by t‐tests or paired t‐tests. […]

[2] = rats, amylin 15 ng/kg/min IV; solid-phase extraction of plasma, amylin radioimmunoassay; ref Arnelo et al. 1998; cited from earlier work
From the text: With respect to the pancreatic hormone amylin, we previously provided evidence that postprandial plasma levels of amylin are not quite sufficient to inhibit food intake in rats by an endocrine mechanism (Arnelo et al. 1998). […] Here, we provide evidence using solid‐phase extraction of plasma and the multiplex assay for active amylin that a large chow meal in ...

| Molecule | ED50 dose for reducing food intake (food intake in lean rats; lean rats) [ng/kg/min] | predicted plasma active amylin level at minimal anorexigenic dose ([1]; rat, in vivo, iv) | plasma amylin produced by anorexigenic IV dose [2] [pg/mL] | effect on food intake (food intake in lean rats; rats, IV infusion of GLP-1 at 33 ng/kg/min, ref Chelikani et al. 2005b) | best-fit linear regression equation, Y plasma peptide concentration (pg/mL), X peptide dose (ng/kg/min) ([1]; lean rats, 45 min IV infusion, three dose levels incl. 0, extracted plasma, multiplex assay, multiplex standards as reference) | plasma level at ~ED50 dose relative to that produced by the large meal ([1]; lean rats, IV ~ED50 doses (56, 68, 39 ng/kg/min) vs postprandial level 30 min after meal onset, ELIA standards as reference) | predicted plasma active GLP-1 level at minimal anorexigenic dose ([1]; regression prediction for GLP-1 1.6 ng/kg/min IV, dose not administered here, [95% CI]) | minimal effective dose for reducing food intake (food intake in lean rats; lean rats, IV infusion of leptin, ref Reidelberger et al. 2012) [ng/kg/min] |
| --- | --- | --- | --- | --- | --- | --- | --- | --- |
| CC(C)C[C@H](NC(=O)[C@H](CC(N)=O)NC(=O)[C@H](CC(N)=O)NC(=O)[C@H](CO)NC(=O)[C@H](CO)NC(=O)[C@H](CCCNC(=N)N)NC(=O)[C@@H](NC(=O)[C@H](CC(C)C)NC(=O)[C@H](Cc1ccccc1)NC(=O)[C@H](CC(N)=O)NC(=O)[C@H](C)NC(=O)[C@H](CC(C)C)NC(=O)[C@H](CCCNC(=N)N)NC(=O)[C@H](CCC(N)=O)NC(=O)[C@@H](NC(=O)[C@H](C)NC(=O)[C@@H]1CSSC[C@H](NC(=O)[C@@H](N)CCCCN)C(=O)N[C@@H](CC(N)=O)C(=O)N[C@@H]([C@@H](C)O)C(=O)N[C@@H](C)C(=O)N[C@@H]([C@@H](C)O)C(=O)N1)[C@@H](C)O)C(C)C)C(=O)NCC(=O)N1CCC[C@H]1C(=O)N[C@H](C(=O)N[C@@H](CC(C)C)C(=O)N1CCC[C@H]1C(=O)N1CCC[C@H]1C(=O)N[C@H](C(=O)N[C@@H](CC(N)=O)C(=O)N[C@H](C(=O)NCC(=O)N[C@@H](CO)C(=O)N[C@@H](CC(N)=O)C(=O)N[C@H](C(=O)N[C@@H](Cc1ccc(O)cc1)C(N)=O)[C@@H](C)O)C(C)C)[C@@H](C)O)C(C)C [Amylin] | 31 | 450 [−460, 1360] pg/mL | 140 | – | – | – | – | – |
| CC[C@H](C)[C@H](NC(=O)[C@H](Cc1ccccc1)NC(=O)[C@H](CCC(=O)O)NC(=O)[C@H](CCCCN)NC(=O)[C@H](C)NC(=O)[C@H](C)NC(=O)[C@H](CCC(N)=O)NC(=O)CNC(=O)[C@H](CCC(=O)O)NC(=O)[C@H](CC(C)C)NC(=O)[C@H](Cc1ccc(O)cc1)NC(=O)[C@H](CO)NC(=O)[C@H](CO)NC(=O)[C@@H](NC(=O)[C@H](CC(=O)O)NC(=O)[C@H](CO)NC(=O)[C@@H](NC(=O)[C@H](Cc1ccccc1)NC(=O)[C@@H](NC(=O)CNC(=O)[C@H](CCC(=O)O)NC(=O)[C@H](C)NC(=O)[C@@H](N)Cc1c[nH]cn1)[C@@H](C)O)[C@@H](C)O)C(C)C)C(=O)N[C@@H](C)C(=O)N[C@@H](Cc1c[nH]c2ccccc12)C(=O)N[C@@H](CC(C)C)C(=O)N[C@H](C(=O)N[C@@H](CCCCN)C(=O)NCC(=O)N[C@@H](CCCNC(=N)N)C(N)=O)C(C)C [GLP‐1, Glucagon‐like peptide‐1] | 76 | – | – | sufficient to decrease food intake | 37 + 75X pg/mL | 30–60 fold and 30 fold | 53 [−400, 510] pg/mL | – |
| Leptin (protein, UniProt P41160 22-167, looked up) Leptin: VPIQKVQDDTKTLIKTIVTRINDISHTQSVSAKQRVTGLDFIPGLHPILSLSKMDQTLAVYQQVLTSLPSQNVLQIANDLENLRDLLHLLAFSKSCSLPQTSGLQKPESLDGVLEASLYSTEVVALSRLQGSLQDILQQLDVSPEC | – | – | – | – | – | – | – | 1100 |
